Measured values published in patent publication US11377442B2, “Small molecule agonists and antagonists of NR2F6 activity” (ZANDER THERAPEUTICS, INC., priority 2016, dated 2022).

Tests used:
Format in all cases: cell-based
Renilla = Renilla signal in NR2F6 agonist screening, cmpd/DMSO; details: for fold induction at 2 µM / fold induction at 10 µM / fold induction at 40 µM: Renilla, Table 14, read-out: Renilla F4, cmpd/DMSO (mean)
HEK293 pGL4 = test: Firefly_pGL signal, cmpd/DMSO (pGL4 control cells); details: Homo sapiens, HEK293, Table 14, read-out: Firefly pGL4, cmpd/DMSO (mean)
NR2F6 = target: T1, NR2F6 (Homo sapiens, UniProt P10588); test: NR2F6 agonist screening, Firefly signal cmpd/DMSO; details: for Firefly F4, cmpd/DMSO (mean): Table 14
T1 construct: expressed in transfected cells; also transient transfection
T1 sequence (P10588 1-404): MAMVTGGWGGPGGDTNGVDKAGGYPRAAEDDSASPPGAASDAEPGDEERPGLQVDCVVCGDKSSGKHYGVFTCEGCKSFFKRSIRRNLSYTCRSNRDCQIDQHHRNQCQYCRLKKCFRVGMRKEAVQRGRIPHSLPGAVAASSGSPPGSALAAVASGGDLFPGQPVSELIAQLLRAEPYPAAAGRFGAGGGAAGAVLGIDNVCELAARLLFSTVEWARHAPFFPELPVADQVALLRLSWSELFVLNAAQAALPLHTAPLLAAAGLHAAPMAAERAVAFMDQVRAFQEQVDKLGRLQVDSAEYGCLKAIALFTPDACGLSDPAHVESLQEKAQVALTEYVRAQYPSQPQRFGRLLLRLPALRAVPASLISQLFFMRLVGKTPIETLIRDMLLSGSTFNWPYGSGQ

| Compound | fold induction at 2 µM (Renilla; 2 uM) | fold induction at 10 µM (Renilla; 10 uM) | fold induction at 40 µM (Renilla; 40 uM) | fold induction at 2 µM (HEK293 pGL4) | fold induction at 10 µM (HEK293 pGL4) | fold induction at 40 µM (HEK293 pGL4) | Firefly F4, cmpd/DMSO (mean) (NR2F6; 2 uM) | Firefly F4, cmpd/DMSO (mean) (NR2F6; 10 uM) | Firefly F4, cmpd/DMSO (mean) (NR2F6; 40 uM) | also measured |
| --- | --- | --- | --- | --- | --- | --- | --- | --- | --- | --- |
| Cc1ccc(NC(=O)c2noc3c2CCC3)cc1C [Compound C301] | 1.1 | 0.7 | 1 | 2.4 | 1.6 | 1.1 | 1.2 | 1.0 | 1.0 |  |
| Cc1ccc(NC(=O)c2noc3c2CCCC3)cc1C [Compound C302] | 0.7 | 1.1 | 1 | 1.8 | 1.4 | 0.8 | 1.2 | 0.9 | 0.9 |  |
| Cc1ccc(NC(=O)c2noc3c2CC(C(C)(C)C)CC3)cc1C (centres unmarked) [Compound C303] | 1 | 0.8 | 1 | 1.1 | 1.1 | 1.1 | 1.2 | 0.9 | 0.9 |  |
| Cc1cc(C)n2nc(CNS(=O)(=O)c3ccc(F)cc3)nc2n1 [Compound E12] | 0.7 | 0.7 | 1 | 0.9 | 0.8 | 1 | 0.7 | 0.9 | 0.5 |  |
| Cc1ccc(NC(=O)c2n[nH]c3c2CC(C)CC3)cc1C (centres unmarked) [Compound Z96] |  |  |  |  |  |  |  |  |  | NR2F6_full (stable, clone F4), cmpd/DMSO Renilla (Renilla; 2 uM): 1.3; NR2F6_full (transient), cmpd/DMSO Renilla (Renilla; 2 uM): 1.0; NR2F6_full (stable, clone F4), cmpd/DMSO Renilla (Renilla; 10 uM): 1.2; NR2F6_full (transient), cmpd/DMSO Renilla (Renilla; 10 uM): 1.0; NR2F6_full (stable, clone F4), cmpd/DMSO Renilla (Renilla; 40 uM): 1.2; NR2F6_full (transient), cmpd/DMSO Renilla (Renilla; 40 uM): 0.9; NR2F6_full (stable, clone F4), cmpd/DMSO Firefly (NR2F6; 2 uM): 2.9; NR2F6_full (transient), cmpd/DMSO Firefly (NR2F6; 2 uM): 2.4; NR2F6_full (stable, clone F4), cmpd/DMSO Firefly (NR2F6; 10 uM): 2.6; NR2F6_full (transient), cmpd/DMSO Firefly (NR2F6; 10 uM): 2.3; NR2F6_full (stable, clone F4), cmpd/DMSO Firefly (NR2F6; 40 uM): 2.6; NR2F6_full (transient), cmpd/DMSO Firefly (NR2F6; 40 uM): 2.4 |
| COc1ccc(-c2noc(Cn3ncccc3=O)n2)cc1 [Compound Z97] |  |  |  |  |  |  |  |  |  | NR2F6_full (stable, clone F4), cmpd/DMSO Renilla (Renilla; 2 uM): 1.1; NR2F6_full (transient), cmpd/DMSO Renilla (Renilla; 2 uM): 1.0; NR2F6_full (stable, clone F4), cmpd/DMSO Renilla (Renilla; 10 uM): 1.1; NR2F6_full (transient), cmpd/DMSO Renilla (Renilla; 10 uM): 1.1; NR2F6_full (stable, clone F4), cmpd/DMSO Renilla (Renilla; 40 uM): 1.2; NR2F6_full (transient), cmpd/DMSO Renilla (Renilla; 40 uM): 1.1; Firefly, cmpd/DMSO (mean) (NR2F6): 2.1; NR2F6_full (stable, clone F4), cmpd/DMSO Firefly (NR2F6; 2 uM): 2.3; NR2F6_full (transient), cmpd/DMSO Firefly (NR2F6; 2 uM): 2.4; NR2F6_full (stable, clone F4), cmpd/DMSO Firefly (NR2F6; 10 uM): 2.2; NR2F6_full (transient), cmpd/DMSO Firefly (NR2F6; 10 uM): 2.8; NR2F6_full (stable, clone F4), cmpd/DMSO Firefly (NR2F6; 40 uM): 1.5; NR2F6_full (transient), cmpd/DMSO Firefly (NR2F6; 40 uM): 2.3 |
| COc1ccc(-c2noc(Cn3nccc(C)c3=O)n2)cc1 [Compound Z153] |  |  |  |  |  |  |  |  |  | Firefly, cmpd/DMSO (mean) (NR2F6): 2.0 |
